{"source": "patent US7892764B2", "about": "“System for seizure suppression” (priority 2006, dated 2011)", "key": {"acute hippocampal slices": {"system": "acute hippocampal slices", "test": "Low Mg2+-induced injury of acute hippocampal slices, LDH release", "assay_type": "cell-based", "conditions": "aCSF without Mg2+ plus 100 μM amiloride for 2 hr, medium collected 6 hr after incubation", "method": "To determine whether ASIC blockade affects seizure-induced neuronal injury, we tested the effect of ASIC blockade on low Mg^2+-induced injury of acute hippocampal slices. 400 μm-thick coronal slices were cut and placed on a Millipore membrane in 6-well plates (2 slices in each well). Slices were randomly divided into three groups treated with the following different solutions (for 2 hr): oxygenated aCSF with normal Mg^2+; oxygenated aCSF without Mg^2+; oxygenated aCSF without Mg^2+ plus 100 μM amiloride. 100 μL medium was collected from each slice 6 hr following the incubation for the measurement of lactate dehydrogenase (LDH). The LDH value was then normalized to the maximal releasable LDH to give % of cell death. With aCSF containing normal Mg^2+, 6.2±0.9% of maximal LDH release was recorded. In the absence of Mg^2+, this value was increased to 13.0±2.2%. Addition of aniloride decreased relative LDH release to 6.0±0.4% (n=3).\nLDH Assay. Lactate dehydrogenase (LDH) is a stable cytoplasmic enzyme present in all cells. […] LDH assays were performed using the Cytotoxicity Detection Kit (Cat#1644793, Roche Molecular Biochemicals) and a spectrophotometric mutiwell plate reader (SPECTRAmax, Molecular Devices). […] Absorbance at OD490 nm was measured 30 min after the reaction. Absorbance at a reference wavelength (OD620 nm) was subtracted from the measurement."}, "C57BL/6 mice": {"system": "C57BL/6 mice", "test": "In vivo kainic acid (KA)-induced seizure model, EEG and TUNEL staining", "design": "species or system mouse", "method": "In an in vivo model of epilepsy (Araki et al., 2002), WT and ASIC1^−/− C57BL/6 mice. 20-25 g, had unilateral microinjection of kainic acid (KA) into the basolateral amygdala nucleus. […] Identical KA injection in ASIC1^−/− mice produced attenuated polyspike EEG activity (total duration: 109.8±30.8 sec, n=6, p<0.01 versus WT control, FIG. 8D).\nTUNEL staining. Following cryostat sectioning, slices were air-dried, fixed in 10% formalin for 15 min, washed three times in PBS, permeabilized in 3% Triton X-100 for 20 min, and washed three times in PBS. Slices were subsequently incubated with a reaction mixture that contained FITC-dUTP and 300 U/mL terminal deoxy-transferase (TdT) for 90 min at 37° C. Cultures were then viewed with a fluorescent microscope at an excitation/emission wavelength of 500/550 nm (green) for FITC-TUNEL labeled cells.\nIntracerebroventricular injection in mice. The procedure was performed as described in our previous studies (Pignataro et al., 2007; Xiong et al., 2004). A burr hole was drilled through the skull and a cannula inserted in the right lateral ventricle. The cannula was inserted stereotactically at 0.5 mm posterior, 1.0 mm lateral, and 3.0 mm ventral to the bregma, 0.5 μL of aCSF, amiloride, or PcTX1 was infused 60 min before KA injection.\nIn vivo KA-induced seizure model. A KA-induced in vivo seizure model was implemented as described in our previous studies (Araki et al., 2002). The protocol for seizure-induction in vivo in mice was approved by the Institutional Animal Care and Use Committee of Legacy Research. Adult male wild-type and ASIC1^−/− mice with genomic background of C57BL/6, 20-25 g in weight, were used for seizure induction by unilateral microinjection of KA into the basolateral amygdala nucleus based on stereotactic coordinates (AP −0.94 mm, L −2.85 mm, and V −3.75 mm relative to the Bregma). After anesthesia and catheterization of the femoral vein, animals were placed in a stereotactic frame modified with a headpiece compatible for the mouse (Kopf Instruments) and kept under anesthesia using a mixture of 68.5% N2O, 30% O2, and 1.5% isoflurane. Rectal body temperature was kept at 37±1° C. during and after the operation using either a heating pad or heating lamp (Harvard Instruments, Holiiston, Mass.). Using dental cement (Plastics One, Inc.), three skull-mounted recording electrodes were affixed to mice (Plastics One, Inc., Roanoke, Va.) and a 26-gauge steel guide cannula over the intact dura. […] The EEG was monitored for 30 min using a Grass Electroencephalogram (Model 8-16), and lorazepam (6 mg/kg, i.p.) Was then administered to terminate seizures. The EEG was further monitored for up to 30 min to ensure seizure cessation. The duration of polyspike (type 4) EEG activity for each mouse was calculated blind offline. […]"}, "[1]": {"conditions": "icv 0.5 μL aCSF containing PcTX1 500 ng/mL, 60 min before KA"}, "[2]": {"conditions": "icv PcTX1 500 ng/mL, 24 hr after KA injection"}}}
{"molecule": "NC(N)=NC(=O)c1nc(Cl)c(N)nc1N", "note": "[amiloride, 3,5-diamino-6-chloro-N(diaminomethylidene)pyrazine-2-carboxamide]", "values": [{"measurement": "relative LDH release (% of maximal releasable LDH, cell death)", "setting": "acute hippocampal slices", "value": "6.0±0.4", "unit": "%"}]}
{"molecule": "Psalmotoxin 1 [PcTX1]", "values": [{"measurement": "duration of polyspike (type-4) EEG activity in 30 min", "setting": "C57BL/6 mice; [1]", "value": "128.3 ± 60.3", "unit": "s"}, {"measurement": "mice showing polyspike EEG activity", "setting": "C57BL/6 mice; [1]", "value": "two out of six"}, {"measurement": "average TUNEL positive cells in CA3", "setting": "C57BL/6 mice; [2]", "value": "21.8±14.1"}, {"measurement": "mice showing any CA3 injury", "setting": "C57BL/6 mice; [2]", "value": "two out of six"}]}
